Assay results as given in US20090306053A1, “Highly selective rho-kinase inhibitor” (priority 2005, published 2009).

How the values were obtained:
Purified rat CaMKII [1] = biological target: T1, Purified rat CaMKII (Rattus norvegicus, UniProt P11275); assay: CaMKII kinase assay (Kinase-Glo ATP consumption); format: biochemical; details: 1 μM ATP; read-out: Kinase Inhibiting Activity (IC50) CaMKII
T1 construct: purchased Upstate
Experimental: (§1) Purified rat CaMKII (containing CaMKIIα and small amounts of β, γ, and δ isoforms, Upstate) was used to evaluate its activity to phosphorylate a substrate peptide (KKALRRQETVDAL, Upstate).
(§2) In a system of the total volume of 50 μL, the reaction of the above-mentioned enzyme (33 ng) was carried out at room temperature for 60 minutes in the presence of 50 mM of Tris-HCl (pH7.5), 10 mM of magnesium chloride, 2 mM of calcium chloride, 0.04 mg/mL of BSA, 16 μg/mL of purified bovine brain calmodulin (Sigma), 0.5 mM of DTT, 50 µM of the above peptide, and 1 μM of ATP. After the kinase reaction, the luminescence intensity corresponding to the amount of ATP in the reaction system was measured using a luciferase reagent (Kinase-Glo Luminescent Kinase Assay kit, Promega) with a chemiluminescence measurement apparatus (MicroLumat, Berthold Technologies). The amount of ATP consumed by the phosphorylation reaction was calculated by comparison with the luminescence intensity in the system when the kinase reaction was not carried out.
(§3) With this system, the kinase reaction was carried out in the presence of a compound at various concentrations, and the IC50 value of the compound was determined based on the resulting compound concentration-response curve for ATP consumption.
(§4) The ROCKII-inhibiting activity of a compound to be tested was defined as 1.0, and the inhibitory activities of the compound against kinases (PKA, PKG, CaMKII, and AuroraA) other than ROCKII were calculated as relative ratios to the ROCKII-inhibiting activity, based on the IC50 values calculated using the above-described evaluation system.

Purified rat CaMKII [2] = assay: CaMKII kinase assay (Kinase-Glo ATP consumption); format: biochemical; details: relative ratio to ROCKII (=1.0), based on IC50 values
Experimental: as §1, §2, §3, §4

Row | Compound | IC50 (Purified rat CaMKII [1]) [µM] | Realative Inhibitory Activity CaMKII (Purified rat CaMKII [2])
1 | 2-(S)-1-(4-fluoroisoquinoline-5-sulfonyl)-4-glycyl-2-methylhomopiperazine dihydrochloride [Example 1] | 22.9 | 763
2 | CNCC(=O)N1CCCN(S(=O)(=O)c2cccc3cncc(F)c23)[C@@H](C)C1.Cl.Cl [Example 2, 2-(S)-1-(4-fluoroisoquinoline-5-sulfonyl)-2-methyl-4-(N-methylglycyl)homopiperazine dihydrochloride] | 26.7 | 890
